Measurements taken from PubChem BioAssay AID2305 (GlaxoSmithKline (GSK), 2010).
Values joined by “and” are separate entries in the source; they are usually repeats but may differ in a detail not shown here. Equal values may be shown once.

tested on: P. falciparum 3D7 growth, pLDH absorbance; assay: P. falciparum 3D7 growth inhibition, dose response, strain 3D7 (AID 2305)

| Compound | IC50 |
| --- | --- |
| O=C(NCC1CC1)C1CCN(C(c2ccccc2)c2ccc(Cl)c(Cl)c2)CC1 (stereo not given) | 0.37 µM |
| CO/C(=C\C=C\c1cc2cc(Cl)c(Cl)cc2[nH]1)C(=O)NCCCN1CCCC[C@@H]1C | 0.75 µM |
| CCn1c(SCc2ccccc2)nc2c1c(=O)[nH]c(=O)n2C | 0.24 µM |
| Clc1cnc2ccc3c(c2c1CCN1CCC(NCc2cc4c(cn2)OCCO4)CC1)OCCO3 | 0.72 µM |
| O=C(NCc1ccccc1)c1nn(CCCN2CCC(N3CCCC3)CC2)cc1-c1ccc(Cl)c(Cl)c1 | 0.67 µM |
| CCN(CC)CCN(Cc1ccc(-c2ccc(Cl)cc2)cc1)C(=O)Cn1c(CCc2cccc(F)c2F)nc(=O)c2ccccc21 | 0.77 µM |
| CC1(C)N=C(N)N=C(N)N1c1cccc(Cl)c1 | 0.04 µM |
| COc1ccccc1CN1CCC(CNC(=O)c2cc(-c3ccc(N(C)C)cc3)cs2)C1 (stereo not given) | 1.27 µM |
| COc1ccc(C(=O)N2CCC3(CC2)C(=O)N(CC(=O)NC2CCCCC2)CN3c2ccccc2)c(OC)c1 | 0.22 µM |
| CSc1ccc2ccccc2c1CCNCCCCNCCc1c(SC)ccc2ccccc12 | 0.41 µM |
| CC[C@H](N=C(Nc1ccc(-c2ccccc2)cc1)Nc1ccc(C#N)cc1O)c1ccccc1 | 0.76 µM |
| CN1CCC(Oc2ccc(CN3CC[C@H](NC(=O)c4ccc(Cl)c(F)c4)C3)c3ccccc23)C1 (stereo not given in full) | 0.74 µM |
| COC(=O)c1ccc(CC(C)NCC(O)c2cccc(SC(F)(F)F)c2)cc1 (stereo not given) | 0.89 µM |
| O=C(Cc1cc(=O)oc2cc(O)ccc12)N1CCC(CN2CCC(c3c[nH]c4ccccc34)CC2)CC1 | 0.87 µM |
| CC(C)c1cn2c3c(cc(C(=O)N[C@@H](Cc4ccccc4)[C@H](O)CNC4CCOCC4)cc13)N(C)S(=O)(=O)CC2 | 0.05 µM |
| CCCCCCN1CCC(NCc2cccc3ccccc23)CC1 | 0.81 µM |
| CC(C)C(=O)NC(c1cccs1)c1cc(Cl)c2cccnc2c1O (stereo not given) | 0.58 µM |
| O=C(c1ccc([N+](=O)[O-])o1)N1CCN(c2nc3c(Cl)cccc3s2)CC1 | 0.98 µM |
| CC1CC(NCCCNc2cc(=O)c3ccccc3[nH]2)c2c(Cl)c(Cl)cc(Cl)c21 (stereo not given) | 0.98 µM |
| O=C(NC1CCCc2ccccc21)C1CCCN(C(=O)c2ccc(O)c(-c3ccc(Cl)c(Cl)c3)c2)C1 (stereo not given) | 1.14 µM |
| N=c1sc2ccccc2n1CC(O)c1ccc(Cl)c(Cl)c1 (stereo not given) | 0.8 µM |
| CCCN(CCC)S(=O)(=O)c1ccc(C(=O)Nc2nc3ccc(-c4cc(=O)[nH]c(Nc5ccccc5Cl)n4)cc3[nH]2)cc1 | 0.59 µM |
| CS(=O)(=O)N1CC2(CCN(CCC(NC(=O)NCc3ccc(Cl)c(Cl)c3)c3ccc(Cl)c(Cl)c3)CC2)c2ccccc21 (stereo not given) | 0.8 µM |
| CCCCCCOc1ccc(N2C(N)=NC(N)=NC2(C)C)cc1 | 0.34 µM |

| Compound | IC50 |
| --- | --- |
| Cc1ccc(O)cc1Nc1ccnc2cc(-c3csc(CN4CCN(C)CC4)n3)ccc12 | 0.6 µM |
| COc1ccc2nccc([C@@H](O)CN3CCC(NC(=O)COc4nc(SCc5ccc(F)cc5)nc5c4CCC5)CC3)c2c1 | 0.59 µM |
| O=C(/C=C/c1ccc(Cl)c(Cl)c1)NCCCCCN1CCC(NS(=O)(=O)c2cc(Cl)cc(Cl)c2)CC1 | 1.24 µM |
| CC(C)(C(=O)NCCC1CCN(CCCCCNC(=O)/C=C/c2ccc(Cl)c(Cl)c2)CC1)c1ccc(Cl)cc1 | 1.28 µM |
| CCN(CCCN1CCCCC1)c1cc(C)nc(Nc2ccc(C)cc2Br)n1 | 0.17 µM |
| CC[C@H]1CN2CC[C@H]1C[C@H]2[C@H](O)c1ccnc2ccc(C#N)cc12 | 0.15 µM |
| COC(=O)C(C)(C)Cc1c(SC(C)(C)C)c2cc(C(C)C)ccc2n1Cc1ccc(Cl)cc1 | 0.85 µM |
| CN(C)CCNCc1ccc(-c2ccc3c(Nc4ccc(Oc5ccccc5)cc4)ccnc3c2)o1 | 0.28 µM |
| O=C(/C=C/c1ccc(Cl)c(Cl)c1)NCCCCCN1CCCN(C(=O)Nc2ccc([N+](=O)[O-])cc2)CC1 | 0.62 µM |
| COc1cc(NCCCNC(=O)c2ccc(Cl)c(Cl)c2)nc2ccccc12 | 0.14 µM |
| Nc1cc2c(C3CCN(CC4CCN(C(=O)/C=C/c5ccc(Cl)c(Cl)c5)CC4)CC3)c[nH]c2cn1 | 0.97 µM |
| COc1ccc(CCN(C)CCCOc2ccc(NC(=O)c3cccc4c(=O)c5ccccc5[nH]c34)cc2)cc1OC | 0.91 µM |
| O=C(N[C@@H](Cc1ccccc1)[C@H](O)CNCCC(F)(F)F)c1cccc(OCC2CC2)c1 | 0.62 µM |
| C=C(C)COc1ccc(-c2n[nH]c(C(F)(F)F)c2-c2ccccc2OC)c(O)c1 | 0.78 µM |
| COc1ccc2nc(/C=C/c3cccc4ccc(C)nc34)[nH]c2c1 | 0.79 µM |
| O=C(Nc1ccc(CN2CCC(c3c[nH]c4ccc(O)cc34)CC2)cc1)c1ccc(-c2ccccc2)cc1 | 0.25 µM |
| O=C(Nc1ccc(Cl)c(Cl)c1)Nc1ccccc1N1CCNCC1 | 0.71 µM |
| C[C@@H]1CC[C@H](NC(=O)[C@H](CC2CCCC2)NC(=O)N2CCNCC2)C(=O)CN1S(=O)(=O)c1ccccn1 | 0.89 µM |
| CC(=O)N(Cc1nc(-c2cc(C(F)(F)F)cc(C(F)(F)F)c2)cs1)c1c(C)cccc1C | 0.11 µM |
| CCN(CC)CCNC(=O)c1ccc(N=Cc2c(O)[nH]c3ccc(S(=O)(=O)Cc4c(Cl)cccc4Cl)cc23)cc1 | 0.84 µM |
| O=C(NCc1ccc(F)cc1)Nc1ccc(-c2cccc(-c3nc4ccc(C(F)(F)F)cc4[nH]3)c2)cc1 | 0.95 µM |
| Cc1ccc(Nc2ccnc(Nc3ccc(F)c(Cl)c3)n2)cc1O | 0.73 µM |
| CCc1cc(NCc2ccncc2)nc(Nc2ccc(F)cc2)n1 | 1.33 µM |
| COc1cccc2c1CCN(CCN1CCC(NC(=O)c3ccc(-c4cccc(Cl)c4Cl)cc3)CC1)C2 | 0.7 µM |

| Compound | IC50 |
| --- | --- |
| CC(=O)Nc1ccc(NC(=O)c2cc(-c3ccc(C)cc3O)n[nH]2)cc1 | 0.49 µM |
| Cc1ccc(Cn2cnc3cc(C(=O)Nc4ccc(-c5cccc(CN(C)C)c5)cc4)ccc3c2=O)o1 | 0.63 µM |
| COCCN1CCN(Cc2ccc(-c3cccc(-c4nc5ccccc5[nH]4)c3)cc2)CC1 | 1.11 µM |
| COc1ccc(NC(=O)[C@H](CC(C)C)Nc2cc(C)nc(NCCc3cccs3)n2)cc1 | 0.96 µM |
| O=C(Nc1cccc(CN2CCCN(Cc3ccc(O)cc3)CC2)c1)c1ccc(-c2ccccc2)cc1 | 0.34 µM |
| CCn1c(CN2CCC(C)CC2)nc2cc(NC(=O)c3cccs3)ccc21 | 0.56 µM |
| NC(N)=Nc1nc(-c2cccc(NC(=O)NCc3ccc(OC(F)(F)F)cc3)c2)cs1 | 0.7 µM |
| O=C(/C=C/c1ccc(Cl)c(Cl)c1)NC1CCC(CN2CCC(c3c[nH]c4cc(O)ccc34)CC2)CC1 (stereo not given) | 0.81 µM |
| CC(C)(C)C1CCc2nc(N)nc(N)c2C1 (stereo not given) | 0.01 µM |
| CC(=O)Nc1ccc(OCCN(Cc2ccccc2OC(F)(F)F)c2ccc(C(F)(F)F)c(C#N)c2)c(Cl)c1 | 0.46 µM |
| CC(C)n1ncc2c(C(=O)N3CCCc4ccccc43)cc(-c3ccccc3)nc21 | 0.6 µM |
| CO/C(=C\C=C\c1cc2cc(Cl)c(Cl)cc2[nH]1)C(=O)NCCCN1CCCC[C@H]1C | 0.79 µM |
| COc1cc(Cc2cnc(N)nc2N)cc(OCCCCCC(=O)O)c1OC | 0.23 µM |
| CC(C)CNCc1cccc(-c2ccc(CN(C(=O)c3cccs3)C3CCN(Cc4ccccc4)CC3)cc2)c1 | 1.01 µM |
| CCCN(CC)CCOC(=O)c1ccccc1 | 0.74 µM |
| O=C(/C=C/c1ccc(Cl)c(Cl)c1)NCCCCCN1CCCC(CNS(=O)(=O)c2cccc(C(F)(F)F)c2)C1 (stereo not given) | 0.95 µM |
| N#Cc1c(Cl)cccc1Oc1ccc(S(=O)(=O)NC2CCC(CN3CCC(c4c[nH]c5ccccc45)CC3)CC2)cc1 (stereo not given) | 0.71 µM and 1.07 µM |
| Cc1cc(Nc2ccc(Cl)c(Cl)c2)n2nc(C)nc2n1 | 0.26 µM |
| CN(C)C(=S)NN=Cc1cccc(O)c1O | 0.87 µM |
| CCN(CCCN1CCCCC1)c1nccc(Nc2ccc(Cl)cc2)n1 | 1.19 µM |
| O=C(C=Cc1cn(-c2ccccc2)nc1-c1ccccc1)N1CCN(c2ccncc2)CC1 | 0.96 µM |
| CCCCOc1cc(C)nc2ccc(NC(=O)COCC(=O)Nc3ccc4nc(C)cc(OCCCC)c4c3)cc12 | 1 µM |
| CCCCCCNC[C@@H](O)[C@H](Cc1ccccc1)NC(=O)c1cc(NCC)cc(N2CCCCS2(=O)=O)c1 | 1 µM |
| Nc1ncc(-c2ccc3[nH]ccc3c2)c2ccc(-c3ccncc3)cc12 | 0.54 µM |

| Compound | IC50 |
| --- | --- |
| NC1CCN(Cc2ccc(-c3ccc(-c4nc5ccc(F)cc5[nH]4)cc3)cc2)C1 (stereo not given) | 0.18 µM |
| OC(CNCc1ccco1)Cn1c2ccc(Br)cc2c2cc(Br)ccc21 (stereo not given) | 1.07 µM |
| O=C(Nc1ccc(Cl)cc1)c1ccc(CN2CCCN(Cc3ccccc3)CC2)cc1 | 0.75 µM |
| CCCN(CCCCCCN(CCC)CCc1ccc(O)c(O)c1)CCc1ccc(O)cc1 | 1.01 µM |
| c1ccc2c(NCCCCCCCCNc3ccnc4ccccc34)ccnc2c1 | 0.16 µM |
| NC1=NC(c2ccccc2)(c2ccccc2)C(=O)N1C1CCCCC1 | 0.66 µM |
| FC(F)(F)c1cccnc1N1CCC(Nc2nc3ccc(Cl)cc3[nH]2)CC1 | 0.65 µM |
| Nc1c(Cl)cc(C(O)CNCCCCCOCCCc2ccc3ncccc3c2)cc1Cl (stereo not given) | 0.98 µM |
| CCCC(C)NC[C@@H](O)[C@H](Cc1ccccc1)NC(=O)c1cc(NCC)cc(N2CCCCS2(=O)=O)c1 (stereo not given in full) | 0.16 µM |
| CC(C)CCNCc1c(O)ccc2ccccc12 | 1.67 µM |
| COC(=O)C(c1ccc(NC(=O)[C@H](CC(C)C)NC(=O)OC(C)(C)C)cc1)c1ccc(NC(=O)[C@H](CC(C)C)NC(=O)OC(C)(C)C)cc1 | 0.35 µM |
| COc1ccc2nccc([C@@H](O)CN3CC[C@H](NCc4cnc5c(c4)NC(=O)CS5)[C@H](F)C3)c2c1 | 0.77 µM |
| COc1ccc(NC(=O)c2ccc(-c3nc(-c4ccc(Cl)cc4)cs3)cc2)cc1N1CCN(C)CC1 | 0.92 µM |
| COc1cccc(Nc2nnc(SCC(=O)NNC(=O)c3ccccn3)s2)c1 | 0.38 µM |
| CCCCNC(=O)c1[nH]c2c(NC(=O)COc3ccccc3)cccc2c1-c1cccc(NC(=O)C(N)CO)c1 (stereo not given) | 0.85 µM |
| CC(CN(C)C)C(=O)Nc1ccc(-c2ccc(-c3nc4ccc(C(F)(F)F)cc4[nH]3)cc2)cc1 (stereo not given) | 0.75 µM |
| Cn1nccc1C(=O)NCCNCc1ccc(-c2ccc(-c3nc4ccc(C(F)(F)F)cc4[nH]3)cc2)cc1 | 0.15 µM |
| Cc1ccc(C(=O)Nc2cc(C(F)(F)F)cc(C(F)(F)F)c2)cc1[N+](=O)[O-] | 0.93 µM |
| CC[C@H]1CN2CC[C@@H]1C[C@H]2[C@H](O)c1cc(N2CCC(CO)CC2)nc2ccc(OC)cc12 | 0.16 µM |
| COc1ccc2cc(C(c3nnnn3CC3CCCO3)N3CCc4ccccc43)c(=O)[nH]c2c1 (stereo not given) | 0.8 µM |
| COc1cc(CCN(C)Cc2ccc(OC)c(OC)c2)ccc1NC(=O)c1cccc2c(=O)c3cccc(F)c3[nH]c12 | 0.2 µM |
| O=C(NCCCCCN1CCC(c2c[nH]c3ccccc23)CC1)Nc1ccc(I)cc1 | 0.99 µM |
| COc1ccc2nccc([C@@H](O)CN3CCC(NC(=O)C(=Cc4ccc(Cl)cc4Cl)c4ccc(-c5ccccc5)cc4)CC3)c2c1 | 0.99 µM |
